Key:
[1] = test system: rat myocardial infarction models; assay: Rat myocardial infarction (heart failure) model, ligation of left coronary artery; assay type: in vivo; conditions: 1 mg/kg/day intraperitoneal, 4 weeks
Protocol: In rat myocardial infarction models, activation of the β-3 receptor could increase level of SIRT1 in cardiomyocyte, inhibit expression of p53, improve the cardiac function and achieve anti-apoptosis effect. The myocardial infarction model was created by ligation of anterior descending branch of rat left coronary artery. BRL37344 was intraperitoneally injected at 1 mg/kg/day, and heart B-ultrasonography was performed after 4 weeks. Heart tissue was determined for apoptosis (tunel method) and expression levels of SIRT1 and p53 (western blot). The ratio of left ventricular weight to body weight (LVW/BW) is determined. It can be seen from the results shown in FIGS. 3 to 5, that BRL37344 decreases p53 expression, cardiac cell apoptosis, and value of LVW/BW of heart failure rat, increases SIRT1 expression, alleviate cardiac hypertrophy and improve cardiac function.

[2] = test system: adipose-derived stem cells of rats; assay: β-Galactosidase staining of adipose-derived stem cells; assay type: cell-based, rat; conditions: 10^−7M, 24 h, compared with SR59230A
Protocol: Blockage of the β-3 receptor could increase level of β-galactosidase in adipose-derived stem cells and promote stem cell aging. BRL37344 and SR59230A were used to treat adipose-derived stem cells of rats each at 10^−7M. After 24 h, cells were fixed using paraformaldehyde, and stained and photographed according to the specification of β-Galactosidase Staining Kit. BRL37344 decreased the level of β-galactosidase in adipose-derived stem cells when compared with SR59230A, indicating agonisting of adrenergic β3 receptors of adipose-derived stem cells achieves anti-aging effect.

[3] = test system: rat cardiomyocyte; assay: Western blot of mTOR and Rictor proteins (mTOR/Rictor complex); assay type: cell-based; conditions: 10^−7M, 24 h, compared to the control shRNA
Protocol: Activation of the β3 receptor could increase mTOR/Rictor complex in MCF-7 cells. shRNA of β3 adrenergic receptor, control shRNA, BRL37344 and SR59230A were used to treat rat cardiomyocyte each at 10^−7M. After 24 h, total protein was extracted and subjected to western blot to determine the expression amount of mTOR and Rictor proteins.

[4] = test system: cardiac fibroblast of rats; assay: mTOR/α-Tubulin and Rictor/α-Tubulin double staining in cardiac fibroblast; assay type: cell-based, rat; conditions: 10^−7M, confocal microscope
Excerpt: Beta-3 receptor promoted binding of mTORC2 to α-Tubulin in spindle apparatus. BRL37344 was used to treat cardiac fibroblast of rats at 10^−7M. The cells were undergone mTOR/α-Tubulin immunohistochemical double staining and Rictor/α-Tubulin immunohistochemical double staining, and observed under confocal microscope.

[5] = test system: MCF-7 cells; assay: Western blot of p53 and SIRT1 in MCF-7 cells treated with SR59230A; assay type: cell-based; conditions: 24 h, with increasing SR59230A concentration
Protocol: MCF-7 cells were treated with SR59230A at different concentrations. After 24 h, the cells were lysed to extract total protein. The protein concentration was determined by BCA method. 10 μg of the protein was used to perform 10% SDS PAGE, and then transferred to a PVDF membrane. The membrane was blocked for 1 h with TBST (10 mmol/L Tris HCl, pH 7.5, 150 mmol/L NaCl, 0.1% Tween 20) containing 4% fat-free milk, and incubated overnight with p53 antibody (1:1000) and SIRT1 antibody (1:1000) at 4° C. The membrane was further incubated with secondary antibodies for 1 h after washing, followed by ECL color development. The same procedure was repeated 3 times. The gray values of protein bands were obtained through Fluorchem 8900 software and the ratio of target band to reference band (GAPDH) was calculated. Results are shown in FIGS. 1 and 2, wherein the expression level of p53 was increased as the increase of SR59230A concentration, while SIRT1 was decreased.

[6] = test system: MCF-7 implant tumor; assay: MCF-7 implant tumor model in nude mice; assay type: in vivo
Protocol: SR59230A reduced implant tumor volume in MCF-7 nude mice. 10^7 of MCF-7 cells were subcutaneously injected into 5-week old female nude mice to establish implant tumor model. 10 days followed the injection, tumor volume increased to about 250 mm^3. The mice were randomly divided into two groups with each group having 8 mice. The treatment group was peritoneally injected with SR56230A at 100 nmol for each mouse. The injection was carried every two days and lasted for 5 weeks. The control group is administrated with solvents with same volume. The length, width and height of tumors were determined using a vernier caliper prior to each administration, so as to calculate tumor volume. The tumor growth curve was shown in FIG. 8, in which SR59230A treated mice had slower implant tumor growth rat when compared to control group (FIG. 9). […] In order to determine expression levels of phospho-4E-BP1(Thr37/46) and p62, the tumor tissue was obtained for paraffin embedding and section and then immunohistochemistry, and proteins were extracted from the tumor tissue for Western blot.

[7] = test system: MCF-7 breast carcinoma cells; assay: Annexin V/PI flow cytometry, apoptosis and cell cycle of MCF-7 cells; assay type: cell-based; conditions: P<0.01
Protocol: (§1) A target sequence was selected from the DNA sequence of β3AR gene using computer program. The DNA fragment of the target sequence was synthesized and cloned on a vector. Human U6 promoter was cloned to pcDNA3/neo vector to clone DNA fragment of shRNA. The plasmid vector was tranfected into cells using lipofection2000. 48 h following the tranfection, siRNA was expressed in the cells. The cells were subjected to Annexin V/PI double staining. Apoptosis rate was determined by flow cytometry.

[8] = test system: H1975 lung cancer cells; assay: Apoptosis of H1975 lung cancer cells; assay type: cell-based
Protocol: as §1

[9] = test system: H1299 lung cancer cells; assay: Apoptosis of H1299 lung cancer cells; assay type: cell-based
Protocol: as §1

[10] = test system: HL-60 leukaemia cells; assay: miR-16-1/miR-15a expression, apoptosis and mitochondrial readouts in HL-60 cells; assay type: cell-based; conditions: HL-60, 10^−7M
Protocol: (§2) SR59230A promoted cell apoptosis by increase expression of miR-16-1 and miR-15a in HL-60 and K562 leukaemia cells. SR59230A at 10^−7M was used to treat HL-60 and K562 leukaemia cells. 8 h following the treatment, total microRNA was extract and then reversely transcribed for quantitative PCR to determine the expression of miR-16-1 and miR-15a. Flow cytometry was used to detect earlier cell apoptosis label Annexin V/PI and apoptosis rate. MitoTracker Red CMXRos was used to detect number of mitochondrion. JC1 was used to determine mitochondrial membrane potential. Autophagosome was determined by monodansylcadaverine (MDC) staining, and observed and countered under transmission electron microscope. Intracellular ATP level was determined by ATP Kit. […] SR59230A could decrease mitochondrial membrane potential of HL-60 and K562 cells, induce mitophagy, decrease mitochondrial content and reduce intracellular ATP level.

[11] = test system: K562 leukaemia cells; assay: miR-16-1/miR-15a expression, apoptosis and mitochondrial readouts in K562 cells; assay type: cell-based; conditions: K562, 10^−7M
Protocol: as §2

[12] = test system: MCF7 cells; assay: Mitochondrial autophagy in MCF7 cells (MitoTracker, LC3II Western blot); assay type: cell-based; conditions: MCF7, 10^−7M, 18 h
Protocol: β3 receptor regulated mitochondrial autophagy. MCF7 cells were treated by SR59230A (10^−7M) for 18 h. MitoTracker was used to label mitochondrion at 37° C. for 20 min. The cells were washed with PBS for 3 times and fluorescent detection was then carried out by fluorescent confocal microscopy and flow cytometry. The autophagy labeling protein LC3II was measured by Western blot.

[13] = test system: multidrug resistance-associated protein 1 (MRP1); assay: 5-CFDA (MRP1 substrate) efflux staining in PC-3 cells; assay type: cell-based, Human; conditions: PC-3, 10^−7M, 18 h, confocal microscopy
Protocol: Beta-3 receptor activated multidrug resistance-associated protein 1 (MRP1). Human prostatic cancer cells PC-3 was used to be treated with SR59230A and BRL37344, each at 10^−7M, for 18 h and then stained with substrate of MRP1, 5-CFDA and observed under confocal microscopy.

[14] = test system: prostatic cancer cells PC-3; assay: Autophagy of prostatic cancer cells PC-3 (FIG. 17); assay type: cell-based, Human; conditions: FIG. 17 legend only
[15] = 100 nmol per mouse peritoneally every two days for 5 weeks
[16] = tumor tissue, immunohistochemistry and Western blot
[17] = 8 h, quantitative PCR, compared to control
[18] = Annexin V/PI flow cytometry, P<0.01

C[C@H](Cc1ccc(OCC(=O)O)cc1)NC[C@H](O)c1cccc(Cl)c1 [BRL37344]
cardiac hypertrophy [1]: alleviate | ratio of left ventricular weight to body weight (LVW/BW) [1]: decreases | cardiac function ([1]; heart B-ultrasonography): improve | cardiac cell apoptosis ([1]; tunel method): decreases | SIRT1 expression in heart tissue ([1]; western blot): increases | p53 expression in heart tissue ([1]; western blot): decreases | level of β-galactosidase [2]: decreased | mTOR/Rictor complex [3]: increased | binding of Rictor to α-Tubulin [4]: promoted | binding of mTOR to α-Tubulin in spindle apparatus [4]: promoted

CCc1ccccc1OC[C@@H](O)CN[C@H]1CCCc2ccccc21 [SR59230A]
expression level of SIRT1 [5]: decreased | expression level of p53 [5]: increased | relative tumor growth rate T/C (%) [6, 15]: 39.80% | tumor inhibition rate [6, 15]: 57.97% | tumor volume based on the control group [6, 15]: 42.03% | implant tumor growth rate compared to control group ([6]; 100 nmol per mouse peritoneally every two days for 5 weeks, tumor growth curve): slower | glycolysis in tumors ([6]; PET/CT detection): inhibited | expression of p62 [6, 16]: reduced | expression of phospho-4E-BP1 [6, 16]: reduced | mTOR activity in tumors [6, 16]: inhibited | mitophagy in tumor cells ([6]; tumor tissue, transmission electron microscope): enhanced | apoptosis rate versus control group [7]: significant increase | apoptosis of H1975 cells [8]: promoted apoptosis | apoptosis of H1299 cells [9]: promoted apoptosis | mitophagy [10]: induce | expression of miR-15a [10, 17]: significantly increased | expression of miR-16-1 [10, 17]: significantly increased | intracellular ATP level ([10]; ATP Kit): reduce | apoptosis rate [10, 18]: increased | mitochondrial membrane potential ([10]; JC1): decrease | mitochondrial content ([10]; MitoTracker Red CMXRos): decrease | mitophagy [11]: induce | expression of miR-15a [11, 17]: significantly increased | expression of miR-16-1 [11, 17]: significantly increased | intracellular ATP level ([11]; ATP Kit): reduce | apoptosis rate [11, 18]: increased | mitochondrial membrane potential ([11]; JC1): decrease | mitochondrial content ([11]; MitoTracker Red CMXRos): decrease | autophagosome [12]: increased | mitochondrion amount ([12]; MitoTracker): significantly decreased | LC3II expression ([12]; Western blot): increased | 5-CFDA efflux (MRP1 substrate) [13]: inhibited | autophagy of prostatic cancer cells PC-3 [14]: increased
